Test results reported in the NIST ThermoML archive (doi:10.1016/j.tca.2013.10.035).
± gives the expanded uncertainty stated by the source.

Assays:
[1] = DTA
[2] = Molar enthalpy of transition or fusion; conditions: DSC

Normal melting temperature ([1]; Crystal) | Molar enthalpy of transition or fusion ([2]; Crystal) | Glass transition temperature [1] | Normal melting temperature ([1]; Crystal 1) | Normal melting temperature ([1]; Metastable crystal) | Molar enthalpy of transition or fusion ([2]; Crystal 1) | Molar enthalpy of transition or fusion ([2]; Metastable crystal) | SMILES
152.8 ± 0.5 °C | 8.99 ± 0.239 kcal/mol | – | – | – | – | – | CC(C)NCC(O)COc1ccc(CC(N)=O)cc1 (stereo not given) [2-(4-(2-hydroxy-3-(isopropylamino)propoxy)phenyl)acetamide]
153.6 ± 0.5 °C | 6.93 ± 0.191 kcal/mol | – | – | – | – | – | COc1ccc2cc([C@H](C)C(=O)O)ccc2c1 [(S)-(+)-naproxen]
95.4 ± 0.5 °C | 9.23 ± 0.263 kcal/mol | 3.2 ± 0.5 °C | – | – | – | – | COc1ccccc1OCC(O)COC(N)=O (stereo not given) [2-hydroxy-3-(2-methoxyphenoxy)propyl carbamate]
– | – | 21.2 ± 0.5 °C | 169.2 ± 0.5 °C | 156.7 ± 0.5 °C | 6.21 ± 0.191 kcal/mol | 5.95 ± 0.167 kcal/mol | CC(=O)Nc1ccc(O)cc1 [N-acetyl-p-aminophenol]
– | – | -34.5 ± 0.5 °C | 70.0 ± 0.5 °C | – | 7.12 ± 0.215 kcal/mol | – | Cc1ccccc1OCC(O)CO (stereo not given) [3-(2-methylphenoxy)-1,2-propanediol]
